Drawing on paper PMC8621334, “Ammonium Formate-Pd/C as a New Reducing System for 1,2,4-Oxadiazoles. Synthesis of Guanidine Derivatives and Reductive Rearrangement to Quinazolin-4-Ones with Potential Anti-Diabetic Activity” (International Journal of Molecular Sciences, 2021), this text covers inhibition for five compounds.

The target of the assay is T1, Dipeptidyl-Peptidase IV (DPPIV) (Homo sapiens, UniProt P27487).
T1 construct: gene DPP4
T1 sequence (P27487 whole entry): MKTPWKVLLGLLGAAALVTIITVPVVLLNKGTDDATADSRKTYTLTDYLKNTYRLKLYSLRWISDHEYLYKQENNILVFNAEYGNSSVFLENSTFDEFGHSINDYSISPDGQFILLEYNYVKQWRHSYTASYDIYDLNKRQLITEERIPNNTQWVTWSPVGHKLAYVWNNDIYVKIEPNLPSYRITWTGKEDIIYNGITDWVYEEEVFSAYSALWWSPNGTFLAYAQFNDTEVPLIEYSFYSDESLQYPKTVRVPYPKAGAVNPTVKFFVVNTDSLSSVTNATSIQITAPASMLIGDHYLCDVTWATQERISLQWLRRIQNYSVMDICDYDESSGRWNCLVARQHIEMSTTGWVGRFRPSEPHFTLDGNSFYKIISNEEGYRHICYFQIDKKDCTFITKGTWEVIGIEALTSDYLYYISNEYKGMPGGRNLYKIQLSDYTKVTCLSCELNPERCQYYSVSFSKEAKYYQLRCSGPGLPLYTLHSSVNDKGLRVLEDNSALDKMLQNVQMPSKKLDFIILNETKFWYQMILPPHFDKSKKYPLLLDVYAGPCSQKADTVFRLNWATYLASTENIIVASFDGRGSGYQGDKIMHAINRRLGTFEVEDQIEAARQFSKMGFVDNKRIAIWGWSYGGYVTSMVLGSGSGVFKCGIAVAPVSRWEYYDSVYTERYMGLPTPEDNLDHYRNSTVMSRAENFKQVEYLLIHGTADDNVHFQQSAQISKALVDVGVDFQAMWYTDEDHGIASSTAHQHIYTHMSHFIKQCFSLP
Kind of assay: fluorometric DPPIV activity assay kit, % inhibition at […]. Type of assay: biochemical.
A word on the inhibition: it is how much of the control response was suppressed. Read a high inhibition as a response far below the control. On to `CC(=O)NC(=N)NC(=O)c1ccccc1` [2k, N-(N-Acetylcarbamimidoyl)benzamide], for which 100 µM produced 79.3% inhibition.

`N=C(NC(=O)c1ccccc1)NC(=O)c1ccccc1` [2n, N,N′-(Iminomethylene)dibenzamide]: the inhibition at 100 µM was found to be 82.7%.

In the case of `COc1ccc(-c2nc(=O)c3ccccc3n2C)cc1` [4f, 2-(4-Methoxyphenyl)-1-methylquinazolin-4(1H)-one], the inhibition at 100 µM was found to be 82.4%.

The compound `COc1ccc(-c2nc(=O)c3ccccc3[nH]2)cc1` [4h, 2-(4-Methoxyphenyl) quinazolin-4(1H)-one] had an inhibition at 100 µM of 79.1%.

Turning to `O=c1nc(-c2ccc(C(F)(F)F)cc2)[nH]c2ccccc12` [4i, 2-(4-(Trifluoromethyl)phenyl)quinazolin-4(1H)-one], the inhibition at 100 µM is 72.5%.
